≈ marks a conversion by molar mass, not a printed value. Read-outs that look alike come from different tables or passages of the source.
Legend:
Assay type in all cases: cell-based
[1] = test system: M. Smegmatis (ATCC607); test: In-vitro anti-bacterial activity against strain M. Smegmatis ATCC607; conditions: for IC90: Mycolicibacterium smegmatis, read-out: IC90 MSM ATCC607
Procedure: D.2. In-Vitro Method for Testing Compounds for Anti-Bacterial Activity Against Strain M. Smegmatis ATCC607. Flat-bottom, sterile 96-well plastic microtiter plates were filled with 180 μl of sterile deionized water, supplemented with 0.25% BSA. […] Serial five-fold dilutions (45 μl in 180 μl) were made directly in the microtiter plates from column 2 to 11 using a customised robot system (Zymark Corp., Hopkinton, Mass.). Pipette tips were changed after every 3 dilutions to minimize pipetting errors with high hydrophobic compounds. […] Approximately 250 CFU per well of bacteria inoculum, in a volume of 100 μl in 2.8× Mueller-Hinton broth medium, was added to the rows […]. The same volume of broth medium without inoculum was added to column 12 in row A to H. The cultures were incubated at 37° C. for 48 hours in a humidified 5% CO2 atmosphere (incubator with open air valve and continuous ventilation). At the end of incubation, two days after inoculation, the bacterial growth was quantitated fluorometrically. Therefore Alamar Blue (10×) was added to all wells in a volume of 20 μl and plates were incubated for another 2 hours at […] The fluorescence was read in a computer-controlled fluorometer (Cytofluor, Biosearch) at an excitation wavelength of 530 nm and an emission wavelength of 590 nm (gain 30).

[2] = test system: Staphylococcus aureus (ATCC29213); test: In-vitro anti-bacterial microtitre plate assay, IC90 determination, Staphylococcus aureus; conditions: for IC90: read-out: IC90 STA 29213
Procedure: (§1) D.3. In-Vitro Method for Testing Compounds for Anti-Bacterial Activity Against Various Non-Mycobacterial Strains […] The bacteria used in this study were grown overnight in flasks containing 100 ml Mueller-Hinton Broth (Becton Dickinson-cat. no. 275730) in sterile de-ionized water, with shaking, at 37° C. Stocks (0.5 ml/tube) were stored at -70° C. until use. Bacteria titrations were performed in microtiter plates to detect the TCID50, in which the TCID50 represents the dilution that gives rise to bacterial growth in 50% of inoculated cultures. In general, an inoculum level of approximately 100 TCID50 was used for susceptibility testing. Anti Bacterial Susceptibility Testing: IC90 Determination Microtitre Plate Assay […] Depending on the bacteria type, approximately 10 to 60 CFU per well of bacteria inoculum (100 TCID50), in a volume of 100 μl in 2.8× Mueller-Hinton broth medium, was added to the rows […]. The same volume of broth medium without inoculum was added to column 12 in row A to H. The cultures were incubated at 37° C. for 24 hours under a normal atmosphere (incubator with open air valve and continuous ventilation). At the end of incubation, one day after inoculation, the bacterial growth was quantitated fluorometrically. Therefore resazurin (0.6 mg/ml) was added in a volume of 20 μl to all wells 3 hours after inoculation, and the plates were re-incubated overnight. A change in colour from blue to pink indicated the growth of bacteria. The fluorescence was read in a computer-controlled fluorometer (Cytofluor Biosearch) at an excitation wavelength of 530 nm and an emission wavelength of 590 nm. The % growth inhibition achieved by the compounds was calculated according to standard methods.

[3] = test system: Streptococcus pneumoniae (ATCC6305); test: In-vitro anti-bacterial microtitre plate assay, IC90 determination, Streptococcus pneumoniae; conditions: for IC90: read-out: IC90 SPN 6305
Procedure: as §1

[4] = 90% inhibitory concentration for bacterial growth, M. Smegmatis ATCC607, 48 hours, Alamar Blue fluorescence
[5] = 90% inhibitory concentration for bacterial growth, Staphylococcus aureus ATCC29213, 24 hours, resazurin fluorescence
[6] = 90% inhibitory concentration for bacterial growth, Streptococcus pneumoniae ATCC6305, 24 hours, resazurin fluorescence

SMILES	IC90 MSM ATCC607 [1, 4] [µg/mL]	IC90 STA 29213 [2, 5] [µg/mL]	IC90 SPN 6305 [3, 6] [µg/mL]	further results
COc1nc2ccc(Br)cc2cc1C(O)(CCCN(C)C)c1cccc2ccccc12 (stereo not drawn) [Compound 1]				IC90 [1, 4]: 1.91 µg/mL (≈ 3.98 µM); IC90 [2, 5]: 7.6 µg/mL (≈ 15.9 µM); IC90 [3, 6]: 8.53 µg/mL (≈ 17.8 µM)
COc1nc2ccc(Br)cc2cc1C(O)(CCCCN(C)C)c1cccc2ccccc12 (stereo not drawn) [Compound 2]	7.82 (≈ 15.8 µM)	39.20 (≈ 79.4 µM)	9.85 (≈ 20 µM)	
COc1nc2ccc(Br)cc2cc1C(O)(CCCCCN(C)C)c1cccc2ccccc12 (stereo not drawn) [Compound 3]	11.36 (≈ 22.4 µM)	8.04 (≈ 15.8 µM)	10.13 (≈ 20 µM)	
COc1nc2ccc(-c3ccccc3)cc2cc1C(O)(CCCN(C)C)c1cccc2ccccc12 (stereo not drawn) [Compound 4]				IC90 ([1]; ATCC607, 48 h): 1.51 µg/mL (≈ 3.17 µM); IC90 ([2]; Staphylococcus aureus, ATCC29213, 24 h): 1.51 µg/mL (≈ 3.17 µM); IC90 ([3]; Streptococcus pneumoniae, ATCC6305, 24 h): 1.51 µg/mL (≈ 3.17 µM)
COc1nc2ccc(-c3ccccc3)cc2cc1C(O)(CCCCN(C)C)c1cccc2ccccc12 (stereo not drawn) [Compound 5]	7.78 (≈ 15.9 µM)	38.97 (≈ 79.4 µM)	49.07 (≈ 100 µM)	
COc1nc2ccc(-c3ccccc3)cc2cc1C(O)(CCCCCN(C)C)c1cccc2ccccc12 (stereo not drawn) [Compound 6]	6.35 (≈ 12.6 µM)	8.00 (≈ 15.9 µM)	10.07 (≈ 20 µM)	
COc1ccccc1-c1ccc2nc(OC)c(C(O)(CCCN(C)C)c3cccc4ccccc34)cc2c1 (stereo not drawn) [Compound 7]	1.60 (≈ 3.16 µM)	1.60 (≈ 3.16 µM)	1.8 (≈ 3.55 µM)	
COc1ccccc1-c1ccc2nc(OC)c(C(O)(CCCCN(C)C)c3cccc4ccccc34)cc2c1 (stereo not drawn) [Compound 8]	6.55 (≈ 12.6 µM)	8.25 (≈ 15.8 µM)	10.39 (≈ 20 µM)	
COc1ccccc1-c1ccc2nc(OC)c(C(O)(CCCCCN(C)C)c3cccc4ccccc34)cc2c1 (stereo not drawn) [Compound 9]	8.47 (≈ 15.8 µM)	8.47 (≈ 15.8 µM)	8.47 (≈ 15.8 µM)	
COc1nc2ccc(-c3ccoc3)cc2cc1C(O)(CCCN(C)C)c1cccc2ccccc12 (stereo not drawn) [Compound 10]	1.48 (≈ 3.17 µM)	1.66 (≈ 3.56 µM)	3.30 (≈ 7.07 µM)	
COc1nc2ccc(-c3ccoc3)cc2cc1C(O)(CCCCN(C)C)c1cccc2ccccc12 (stereo not drawn) [Compound 11]	7.62 (≈ 15.9 µM)	7.62 (≈ 15.9 µM)	9.59 (≈ 20 µM)	
COc1nc2ccc(-c3ccoc3)cc2cc1C(O)(CCCCCN(C)C)c1cccc2ccccc12 (stereo not drawn) [Compound 12]	1.56 (≈ 3.15 µM)	1.56 (≈ 3.15 µM)	1.76 (≈ 3.56 µM)	
COc1nc2ccc(-c3cccs3)cc2cc1C(O)(CCCN(C)C)c1cccc2ccccc12 (stereo not drawn) [Compound 13]	1.53 (≈ 3.17 µM)	1.53 (≈ 3.17 µM)	1.71 (≈ 3.54 µM)	
COc1nc2ccc(-c3cccs3)cc2cc1C(O)(CCCCN(C)C)c1cccc2ccccc12 (stereo not drawn) [Compound 14]	15.71 (≈ 31.6 µM)	39.45 (≈ 79.4 µM)	49.67 (≈ 100 µM)	
COc1nc2ccc(-c3cccs3)cc2cc1C(O)(CCCCCN(C)C)c1cccc2ccccc12 (stereo not drawn) [Compound 15]	45.52 (≈ 89.1 µM)	51.07 (≈ 100 µM)	51.07 (≈ 100 µM)	
COc1nc2ccc(-c3cccnc3)cc2cc1C(O)(CCCN(C)C)c1cccc2ccccc12 (stereo not drawn) [Compound 16]	1.51 (≈ 3.16 µM)	7.57 (≈ 15.8 µM)	7.57 (≈ 15.8 µM)	
COc1nc2ccc(-c3cccnc3)cc2cc1C(O)(CCCCN(C)C)c1cccc2ccccc12 (stereo not drawn) [Compound 17]	49.16 (≈ 100 µM)	49.16 (≈ 100 µM)	49.16 (≈ 100 µM)	
COc1nc2ccc(-c3cccnc3)cc2cc1C(O)(CCCCCN(C)C)c1cccc2ccccc12 (stereo not drawn) [Compound 18]	8.01 (≈ 15.8 µM)	8.01 (≈ 15.8 µM)	8.99 (≈ 17.8 µM)	
COc1nc2ccc(-c3cc4ccccc4o3)cc2cc1C(O)(CCCN(C)C)c1cccc2ccccc12 (stereo not drawn) [Compound 19]	3.26 (≈ 6.31 µM)	3.66 (≈ 7.08 µM)	8.19 (≈ 15.9 µM)	
COc1nc2ccc(-c3cc4ccccc4o3)cc2cc1C(O)(CCCCCN(C)C)c1cccc2ccccc12 (stereo not drawn) [Compound 20]	1.72 (≈ 3.16 µM)	1.72 (≈ 3.16 µM)	1.72 (≈ 3.16 µM)	

— patent publication US20110166179A1, “ANTIBACTERIAL QUINOLINE DERIVATIVES” (priority 2007, published 2011)
